Test results published in patent US20220220128A1, “HETEROCYCLIC COMPOUNDS AS KINASE INHIBITORS, COMPOSITIONS COMPRISING THE HETEROCYCLIC COMPOUND, AND METHODS OF USE THEREOF” (JS Innopharm (Shanghai) Ltd, priority 2019, published 2022).
Like-named read-outs stand apart in the source and are kept apart here.

How the values were obtained:
[1] = target: T1, BAF3-KIF5B-RET cells (Homo sapiens, UniProt P07949); experiment: BAF3-KIF5B-RET Cell proliferation assay (CellTiter-Glo, 72 hours); format: cell-based; conditions: growth inhibition, read-out: BA/F3-KIF5B-RET Cellular activity
T1 construct: fused on or other part: P33176 (Kinesin-1 heavy chain)
Procedure, shortened: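 Cells seeded at 2,000/well in RPMI-1640 with 10% FBS and left 24 h at 37 °C, then exposed 72 h to nine compound levels (final 1 μM down to 0.00015 μM, 0.1% DMSO). CellTiter-Glo luminescence gave viability versus DMSO wells, from which IC50 was fitted.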

[2] = system: TT cells; experiment: TT Cell Proliferation Assay (WST-8, 8 days); format: cell-based; conditions: Homo sapiens, 192 h, growth inhibition in TT cells, read-out: TT Cellular Activity
Procedure, shortened: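 TT cells, 6,000/well in RPMI-1640 with 10% FBS, attached 24 h, then exposed to compound at 5 μM down to 0.0005 μM final (0.5% DMSO) for 8 days at 37 °C. WST-8 added for 5 h, absorbance at 450 nm. IC50 calculated from the dilution series.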

[3] = target: T2, human RET kinase (Homo sapiens, UniProt P07949); experiment: RET Kinase Assay (LanthaScreen TR-FRET enzymatic assay); format: biochemical; conditions: 7 nM RET, 23 μM ATP
T2 construct: purchased Carna 08-159
Procedure, shortened: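 Human RET (7 nM) preincubated 15 min with compound in 50 mM HEPES pH 7.5, 0.0015% Brij-35, then reacted with 3 μM FAM-P2 peptide and 23 μM ATP for 1 h at 28° C.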

[4] = target: T3, human KDR kinase (Homo sapiens, UniProt P35968); experiment: KDR Kinase Assay (LanthaScreen TR-FRET enzymatic assay); format: biochemical; conditions: 1.2 nM KDR, 92 μM ATP
T3 construct: purchased Carna 08-191
Procedure, shortened: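 Recombinant human KDR (1.2 nM) preincubated 15 min at room temperature with compound, then reacted with 3 μM FAM-P22 peptide and 92 μM ATP in 50 mM HEPES pH 7.5 for 1 h at 28° C. EDTA stop, then TR-FRET acceptor/donor ratio read; percent of 1% DMSO control fitted sigmoidally for IC50.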

T2 sequence (P07949 29-1114): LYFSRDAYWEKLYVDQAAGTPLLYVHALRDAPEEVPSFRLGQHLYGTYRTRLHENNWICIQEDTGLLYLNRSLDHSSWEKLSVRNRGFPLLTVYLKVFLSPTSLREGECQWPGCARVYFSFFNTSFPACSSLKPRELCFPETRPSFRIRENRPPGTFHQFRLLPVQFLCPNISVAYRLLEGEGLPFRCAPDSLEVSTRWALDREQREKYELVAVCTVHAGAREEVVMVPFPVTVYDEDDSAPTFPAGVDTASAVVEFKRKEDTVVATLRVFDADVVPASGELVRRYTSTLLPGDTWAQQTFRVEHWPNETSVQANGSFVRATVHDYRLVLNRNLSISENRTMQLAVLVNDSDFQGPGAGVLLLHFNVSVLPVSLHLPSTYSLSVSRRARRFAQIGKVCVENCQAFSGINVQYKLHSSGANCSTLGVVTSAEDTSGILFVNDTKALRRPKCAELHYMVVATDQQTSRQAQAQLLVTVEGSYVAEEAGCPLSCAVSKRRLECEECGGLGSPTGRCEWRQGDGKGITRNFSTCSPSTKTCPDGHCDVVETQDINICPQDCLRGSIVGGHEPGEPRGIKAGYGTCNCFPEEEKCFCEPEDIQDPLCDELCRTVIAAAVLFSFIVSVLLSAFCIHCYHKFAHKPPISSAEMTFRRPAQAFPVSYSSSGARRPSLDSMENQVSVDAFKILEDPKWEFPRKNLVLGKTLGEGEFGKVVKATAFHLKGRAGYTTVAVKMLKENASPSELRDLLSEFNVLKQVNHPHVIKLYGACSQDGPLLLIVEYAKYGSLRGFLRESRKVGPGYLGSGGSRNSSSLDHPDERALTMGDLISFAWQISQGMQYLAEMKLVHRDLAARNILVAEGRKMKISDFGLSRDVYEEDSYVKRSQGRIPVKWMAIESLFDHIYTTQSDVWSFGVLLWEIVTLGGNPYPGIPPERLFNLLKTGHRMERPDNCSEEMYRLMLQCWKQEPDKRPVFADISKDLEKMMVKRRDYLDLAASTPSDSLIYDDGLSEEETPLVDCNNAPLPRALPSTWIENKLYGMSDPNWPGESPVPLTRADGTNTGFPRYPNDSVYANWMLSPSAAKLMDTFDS
T3 sequence (P35968 20-1356): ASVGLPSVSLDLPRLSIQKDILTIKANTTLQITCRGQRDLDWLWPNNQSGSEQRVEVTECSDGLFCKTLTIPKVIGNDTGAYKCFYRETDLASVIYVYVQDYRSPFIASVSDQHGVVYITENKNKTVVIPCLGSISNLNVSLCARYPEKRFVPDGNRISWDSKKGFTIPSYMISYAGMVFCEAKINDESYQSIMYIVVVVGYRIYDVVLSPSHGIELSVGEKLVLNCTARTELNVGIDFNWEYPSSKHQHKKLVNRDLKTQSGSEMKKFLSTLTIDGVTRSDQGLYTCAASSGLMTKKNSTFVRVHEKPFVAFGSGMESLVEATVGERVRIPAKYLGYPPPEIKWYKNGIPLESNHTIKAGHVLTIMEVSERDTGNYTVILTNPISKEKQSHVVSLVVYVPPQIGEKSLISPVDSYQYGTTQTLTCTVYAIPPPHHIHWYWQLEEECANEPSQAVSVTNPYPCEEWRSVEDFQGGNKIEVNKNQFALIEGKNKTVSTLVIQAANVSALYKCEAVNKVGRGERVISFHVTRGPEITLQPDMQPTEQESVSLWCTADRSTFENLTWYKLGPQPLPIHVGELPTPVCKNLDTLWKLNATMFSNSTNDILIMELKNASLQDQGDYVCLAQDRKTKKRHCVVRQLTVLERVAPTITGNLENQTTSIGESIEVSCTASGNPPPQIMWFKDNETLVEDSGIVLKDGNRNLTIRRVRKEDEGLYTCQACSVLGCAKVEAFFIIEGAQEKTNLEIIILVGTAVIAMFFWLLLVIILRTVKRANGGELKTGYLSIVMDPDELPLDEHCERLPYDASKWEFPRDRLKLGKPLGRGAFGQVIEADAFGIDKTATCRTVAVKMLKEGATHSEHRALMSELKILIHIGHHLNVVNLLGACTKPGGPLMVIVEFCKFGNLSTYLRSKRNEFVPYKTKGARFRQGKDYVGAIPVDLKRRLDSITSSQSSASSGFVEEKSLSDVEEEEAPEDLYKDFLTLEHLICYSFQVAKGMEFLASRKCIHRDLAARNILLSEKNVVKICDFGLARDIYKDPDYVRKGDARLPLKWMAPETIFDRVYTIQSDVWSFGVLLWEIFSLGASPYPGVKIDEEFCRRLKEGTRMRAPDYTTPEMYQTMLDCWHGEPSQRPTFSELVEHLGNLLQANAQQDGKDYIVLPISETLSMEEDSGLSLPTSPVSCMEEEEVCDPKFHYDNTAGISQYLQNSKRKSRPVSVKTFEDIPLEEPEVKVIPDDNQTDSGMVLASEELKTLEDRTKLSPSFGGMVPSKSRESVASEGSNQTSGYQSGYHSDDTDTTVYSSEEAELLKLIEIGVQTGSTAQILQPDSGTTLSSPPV
T1 sequence (P07949 whole entry, change not shown, the tested form may be a part): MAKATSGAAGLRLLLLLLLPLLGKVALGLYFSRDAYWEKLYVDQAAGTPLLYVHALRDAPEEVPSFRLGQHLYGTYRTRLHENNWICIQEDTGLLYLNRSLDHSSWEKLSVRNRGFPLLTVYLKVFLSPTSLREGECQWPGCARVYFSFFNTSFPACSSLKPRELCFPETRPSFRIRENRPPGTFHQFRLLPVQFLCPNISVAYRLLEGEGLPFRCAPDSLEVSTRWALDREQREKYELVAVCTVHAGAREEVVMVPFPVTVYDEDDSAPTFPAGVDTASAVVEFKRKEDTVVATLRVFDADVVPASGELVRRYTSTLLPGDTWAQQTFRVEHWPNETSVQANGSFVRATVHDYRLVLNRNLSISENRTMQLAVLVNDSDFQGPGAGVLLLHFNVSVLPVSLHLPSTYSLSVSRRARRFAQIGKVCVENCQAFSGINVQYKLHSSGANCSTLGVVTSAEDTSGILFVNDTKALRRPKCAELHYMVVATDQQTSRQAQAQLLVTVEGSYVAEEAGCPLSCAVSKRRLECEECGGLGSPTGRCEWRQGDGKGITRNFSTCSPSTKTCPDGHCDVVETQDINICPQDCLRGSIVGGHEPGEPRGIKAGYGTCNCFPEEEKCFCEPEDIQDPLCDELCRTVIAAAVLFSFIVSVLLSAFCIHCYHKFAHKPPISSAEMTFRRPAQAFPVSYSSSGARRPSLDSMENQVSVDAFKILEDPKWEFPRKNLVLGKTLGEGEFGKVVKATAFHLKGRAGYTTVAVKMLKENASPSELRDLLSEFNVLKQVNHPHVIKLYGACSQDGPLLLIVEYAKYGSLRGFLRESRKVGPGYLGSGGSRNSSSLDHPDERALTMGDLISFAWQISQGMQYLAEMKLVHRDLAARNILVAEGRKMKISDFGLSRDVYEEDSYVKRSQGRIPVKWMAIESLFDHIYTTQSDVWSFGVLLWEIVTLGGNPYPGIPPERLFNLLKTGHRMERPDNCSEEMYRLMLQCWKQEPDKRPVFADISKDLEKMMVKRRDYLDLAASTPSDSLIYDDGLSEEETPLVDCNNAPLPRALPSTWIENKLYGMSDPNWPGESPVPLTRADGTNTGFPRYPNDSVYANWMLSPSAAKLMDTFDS

SMILES | GI50 [1] [nM] | IC50 ([2]; TT) [nM] | IC50 [3] [nM] | IC50 [4] [nM] | IC50 [2] [nM]
CC(=O)NC12CC3CC(C1)N(c1ccc(-c4cc(-c5cnn(C)c5)cn5ncc(C#N)c45)cn1)C(C3)C2 [Example 97, N-((1R,3S,5s,7s)-2-(5-(3-cyano-6-(1-methyl-1H-pyrazol-4-yl)pyrazolo[1,5-a]pyridin-4-yl)pyridin-2-yl)-2-azaadamantan-5-yl)acetamide] | ≤ 10 | ≤ 10 | ≤ 10 | ≤ 10 | 
COc1ccc(CN2C[C@@H]3CN(c4ccc(-c5cc(-c6cnn(C)c6)cn6ncc(C#N)c56)cn4)C[C@@H]3C2)cn1 [Example 12, 4-(6-((3aR,6aS)-5-((6-methoxypyridin-3-yl)methyl)hexahydropyrrolo[3,4-c]pyrrol-2(1H)-yl)pyridin-3-yl)-6-(1-methyl-1H-pyrazol-4-yl)pyrazolo[1,5-a]pyridine-3-carbonitrile] | ≤ 10 |  | ≤ 10 | 10 to 50 | 10 to 50
CC(C)(O)COc1cc(-c2ccc(N3C4CC5CC3CC(NC(=O)c3ncccc3Cl)(C5)C4)nc2)c2c(C#N)cnn2c1 [Example 135, 3-chloro-N-((1R,3S,5s,7s)-2-(5-(3-cyano-6-(2-hydroxy-2-methylpropoxy)pyrazolo[1,5-a]pyridin-4-yl)pyridin-2-yl)-2-azaadamantan-5-yl)picolinainide] | ≤ 10 | ≤ 10 | ≤ 10 | 10 to 50 | 
Cn1cc(-c2cc(-c3ccc(N4C[C@@H]5[C@H](C4)[C@H]5NC(=O)c4ncccc4Cl)nc3)c3c(C#N)cnn3c2)cn1 [Example 20, 3-chloro-N-((1R,5S,6s)-3-(5-(3-cyano-6-(1-methyl-1H-pyrazol-4-yl)pyrazolo[1,5-a]pyridin-4-yl)pyridin-2-yl)-3-azabicyclo[3.1.0]hexan-6-yl)picolinamide] | 10 to 50 | 10 to 50 | ≤ 10 | 10 to 50 | 
C[C@@]1(NC(=O)c2ncccc2Cl)C[C@H]2CN(c3ccc(-c4cc(OCC5CNCCO5)cn5ncc(C#N)c45)cn3)C[C@H]2C1 (some centres unmarked) [Example 53] | ≤ 10 | ≤ 10 | ≤ 10 | 10 to 50 | 
Cn1cc(-c2cc(-c3ccc(N4C5CC6CC4CC(C(=O)Nc4ncccc4Cl)(C6)C5)nc3)c3c(C#N)cnn3c2)cn1 [Example 90, (1R,3S,5s,7s)-N-(3-chloropyridin-2-yl)-2-(5-(3-cyano-6-(1-methyl-1H-pyrazol-4-yl)pyrazolo[1,5-a]pyridin-4-yl)pyridin-2-yl)-2-azaadamantane-5-carboxamide] | ≤ 10 | ≤ 10 | ≤ 10 | ≤ 10 | 
CC(C)(O)COc1cc(-c2ccc(N3C[C@H]4CN(C(=O)c5ncccc5Cl)C[C@H]4C3)nc2)c2c(C#N)cnn2c1 [Example 7, 4-(6-((3aR,6aS)-5-(3-chloropicolinoyl)hexahydropyrrolo[3,4-c]pyrrol-2(1H)-yl)pyridin-3-yl)-6-(2-hydroxy-2-methylpropoxy)pyrazolo[1,5-a]pyridine-3-carbonitrile] | 50 to 100 | ≤ 10 | ≤ 10 | > 100 | 
Cn1cc(-c2cc(-c3ccc(N4C[C@@H]5[C@H](C4)[C@H]5NS(=O)(=O)c4c(F)cccc4Cl)nc3)c3c(C#N)cnn3c2)cn1 [Example 46, 2-chloro-N-((1R,5S,6s)-3-(5-(3-cyano-6-(1-methyl-1H-pyrazol-4-yl)pyrazolo[1,5-a]pyridin-4-yl)pyridin-2-yl)-3-azabicyclo[3.1.0]hexan-6-yl)-6-fluorobenzene-sulfonamide] | ≤ 10 | ≤ 10 | ≤ 10 | ≤ 10 | 
CC(C)C(O)C(=O)NC[C@@H]1[C@H]2CN(c3ccc(-c4cc(-c5cnn(C)c5)cn5ncc(C#N)c45)cn3)C[C@@H]12 (stereo partly drawn) [Example 75, N-(((1R,5S,6s)-3-(5-(3-cyano-6-(1-methyl-1H-pyrazol-4-yl)pyrazolo[1,5-a]pyridin-4-yl)pyridin-2-yl)-3-azabicyclo[3.1.0]hexan-6-yl)methyl)-2-hydroxy-3-methylbutanamide] | ≤ 10 | ≤ 10 | ≤ 10 | 10 to 50 | 
Cn1cc(-c2cc(-c3ccc(N4C[C@H]5CN(C(=O)c6ncccc6Cl)C[C@H]5C4)nc3)c3c(C#N)cnn3c2)cn1 [Example 4, 4-(6-((3aR,6aS)-5-(3-chloropicolinoyl)hexahydropyrrolo[3,4-c]pyrrol-2(1H)-yl)pyridin-3-yl)-6-(1-methyl-1H-pyrazol-4-yl)pyrazolo[1,5-a]pyridine-3-carbonitrile] | ≤ 10 | ≤ 10 | ≤ 10 | 10 to 50 | 
Cn1cc(-c2cc(-c3ccc(N4C[C@@H]5C[C@@](C)(NC(=O)c6ncccc6C#N)C[C@@H]5C4)nc3)c3c(C#N)cnn3c2)cn1 [Example 121, 3-cyano-N-((3aR,5s,6aS)-2-(5-(3-cyano-6-(1-methyl-1H-pyrazol-4-yl)pyrazolo[1,5-a]pyridin-4-yl)pyridin-2-yl)-5-methyloctahydrocyclopenta[c]pyrrol-5-yl)picolinamide] | ≤ 10 | ≤ 10 | ≤ 10 | ≤ 10 | 
CC(C)(O)COc1cc(-c2ccc(N3C[C@@H]4C[C@@](C)(NC(=O)c5c(F)cccc5Cl)C[C@@H]4C3)nc2)c2c(C#N)cnn2c1 [Example 96, 2-chloro-N-((3aR,5s,6aS)-2-(5-(3-cyano-6-(2-hydroxy-2-methylpropoxy)pyrazolo[1,5-a]pyridin-4-yl)pyridin-2-yl)-5-methyloctahydrocyclopenta[c]pyrrol-5-yl)-6-fluorobenzamide] | ≤ 10 | ≤ 10 | ≤ 10 | 10 to 50 | 
Cn1cc(-c2cc(-c3cnc(N4C[C@@H]5C[C@@](C)(NC(=O)c6ncccc6Cl)C[C@@H]5C4)cn3)c3c(C#N)cnn3c2)cn1 [Example 61] | ≤ 10 | ≤ 10 | ≤ 10 | 10 to 50 | 
CCOc1cc(-c2ccc(N3C4CC5CC3CC(NC(=O)c3ncccc3Cl)(C5)C4)nc2)c2c(C#N)cnn2c1 [Example 136, 3-chloro-N-((1R,3S,5s,7s)-2-(5-(3-cyano-6-ethoxypyrazolo[1,5-a]pyridin-4-yl)pyridin-2-yl)-2-azaadamantan-5-yl)picolinamide] | ≤ 10 | ≤ 10 | ≤ 10 | 10 to 50 | 
